According to PubChem BioAssay AID504646 (Southern Research Specialized Biocontainment Screening …, 2011):
Where “and” joins values, the source holds several entries; their conditions need not be identical. Equal entries are not always repeated. Peptide text beside a SMILES is read from it. * marks the point of attachment. Cbz = O=C(OCc1ccccc1)*

Test system: Mycobacterium tuberculosis growth in 7H9 media
Assay: M. tuberculosis growth inhibition in 7H9, dose response, 7H9 media, purified and synthesized samples, set 3 (AID 504646)
Conditions: for IC90: 90% growth inhibition concentration

Row | Structure (SMILES) | IC50 | IC90
1 | O=C(NCCc1ccc(Cl)cc1)c1ccc(CNc2c(N3CCOCC3)c(=O)c2=O)cc1 | 4.71 µM | 6.88 µM
2 | CC(C)NC(=O)c1sc(=S)n2c1[nH]c(=O)c1ccc(C(=O)NCCc3ccc(Cl)cc3)cc12 | 0.11 µM | 0.3 µM
3 | CCC(Sc1ncnc2c1nnn2-c1ccc(F)cc1)C(=O)OC (stereo not given) | 9.59 µM | > 25 µM
4 | CCC(C)Nc1ccc(NC(C)CC)cc1 (stereo not given) | 0.61 µM | 0.98 µM
5 | CCOC(=O)CSc1ncnc2c1cnn2-c1ccc(Cl)cc1 | 4.32 µM | > 25 µM
6 | CCOC(=O)CSc1ncnc2c1cnn2-c1ccc(C)cc1C | 4.63 µM | 7.47 µM
7 | CC(C)OC(=O)CSc1ncnc2c1cnn2-c1ccccc1 | 10.5 µM | > 25 µM
8 | S=c1nc[nH]c2nc[nH]c12 | 1.38 µM | 1.96 µM
9 | COC(=O)C(C)Oc1ccc(-c2nccc(-c3ccccn3)n2)cc1 (stereo not given) | 2.11 µM | 4.13 µM
10 | CC1CCCN(C(=O)c2ccc(CNc3c(N4CCCCC4)c(=O)c3=O)cc2)C1 (stereo not given) | 1.39 µM | > 25 µM
11 | O=C(c1ccc(CNc2c(N3CCCC3)c(=O)c2=O)cc1)N1CCc2ccccc2C1 | 3.62 µM | 5.79 µM
12 | O=C(CSc1nc2c(c(=O)[nH]1)CCC2)Nc1ccc(F)cc1 | 10 µM | 17.1 µM
13 | CCOC(=O)COc1ccc(/C=C2\NC(=S)N(CC)C2=O)cc1 | 1.94 µM | 3.7 µM
14 | CCOC(=O)CSc1ncnc2c1nnn2-c1ccc(F)cc1 | 2.46 µM | 4.35 µM
15 | COc1ccc(N2CCN(C(=O)c3ccc(CNc4c(N5CCOCC5)c(=O)c4=O)cc3)CC2)cc1 | 2.16 µM | > 25 µM
16 | CC1CC(C)CN(C(=O)C2CCC(CNc3c(N4CCCCC4)c(=O)c3=O)CC2)C1 (stereo not given) | 7.76 µM | > 25 µM
17 | c1ccc(/N=C2\N=C(Nc3ccccn3)c3ccccc32)nc1 | 0.16 µM | 0.25 µM
18 | O=C(c1ccc(CNc2c(N3CCCC3)c(=O)c2=O)cc1)N1CC=C(c2ccccc2)CC1 | 2.31 µM | > 25 µM
19 | COC(=O)CCc1nc2c(C#N)c(-c3ccc(Cl)cc3)ccn2n1 | 2.58 µM | 3.66 µM
20 | CC[N+](C)(CC)CCCCOc1ccc2c(c1)C(=O)c1cc(OCCCC[N+](C)(CC)CC)ccc1-2 | 1.42 µM | 1.98 µM
21 | Cc1ccc2c(c1)c(C1=c3ccccc3=NC1=O)c(O)n2C | 0.84 µM | 3.12 µM

Row | Structure (SMILES) | IC50 | IC90
22 | Cc1cccc(N2CCN(C(=O)c3ccc(CNc4c(N5CCC(C)CC5)c(=O)c4=O)cc3)CC2)c1C | 24.5 µM | > 25 µM
23 | CCc1c(C)nc(SCC(=O)NC2CCCC2)[nH]c1=O | 1.5 µM | 2.85 µM
24 | O=C(NCC1COc2ccccc2O1)C1CCC(CNc2c(N3CCCCC3)c(=O)c2=O)CC1 (stereo not given) |  | > 25 µM
25 | O=C(c1ccc(CNc2c(N3CCOCC3)c(=O)c2=O)cc1)N1CC=C(c2ccccc2)CC1 | 0.66 µM | 0.83 µM
26 | CC1CCN(C(=O)C2CCN(c3nnc(-n4cccc4)s3)CC2)CC1 | 1.55 µM | 2.91 µM
27 | Cc1cccc(/C=C/C(=O)c2ccc([N+](=O)[O-])o2)c1 | 0.1 µM | 0.17 µM
28 | COC(=O)C(C)Oc1ccc(Cc2ncc(C(F)(F)F)cc2Cl)cc1 (stereo not given) | 2.66 µM | 4.35 µM
29 | CCOC1OC(=O)C(Cl)=C1Nc1ccccc1C (stereo not given) | 2.31 µM | > 25 µM
30 | O=C(CSc1nc2ccccc2c(=O)[nH]1)NCc1ccc(Cl)cc1 | 0.38 µM and 1.3 µM | 0.67 µM and 2.02 µM
31 | Cc1nn2c(NCc3ccccn3)cc(C(C)C)nc2c1-c1ccccc1 | 1.22 µM | 1.73 µM
32 | CCOc1ccc(-c2cc(C)[n+](CCc3ccc(OC)c(OC)c3)c(-c3ccc(OCC)cc3)c2)cc1 | 0.6 µM | 0.9 µM
33 | CC1CCN(C(=O)c2ccc(CNc3c(N4CCCC4)c(=O)c3=O)cc2)CC1 | 5.81 µM | 6.65 µM
34 | O=C(NCC(c1cccs1)N1CCOCC1)c1cc([N+](=O)[O-])cc([N+](=O)[O-])c1 (stereo not given) | 0.21 µM | 0.58 µM
35 | COc1ccc(-n2nnc3c(SCC(=O)OCc4ccccc4)ncnc32)cc1 | 1.63 µM | > 25 µM
36 | CCOc1ccc(NC(=O)CSc2nc(O)c(C)c(=O)n2-c2ccc(F)cc2)cc1 | 18.6 µM | > 25 µM
37 | Cc1cccc(-c2oc3ccc(-c4ccc5c(c4)OCO5)cc3c2C#Cc2cncn2C)c1 | 1.78 µM | 2.69 µM
38 | Cc1cc(Br)ccc1NC(=O)c1cnc(N2CCN(c3ccccn3)CC2)c2ccccc12 | 0.28 µM | 2.61 µM
39 | CCOC(=O)CNC(=O)[C@H](Cc1ccccc1)NC(=O)OCc1ccccc1 (Cbz-Phe-Gly-OEt) | 1.06 µM | 2.96 µM
40 | COC(=O)C(C)Sc1ncnc2c1nnn2-c1ccc(F)cc1 (stereo not given) | 1.88 µM | 4.64 µM
41 | Cc1ccc(C(=O)N/N=C(/CC(=O)c2cccs2)C(F)(F)F)cc1 | 1.56 µM | 2.37 µM
42 | Cc1nc(SCC(=O)NC2CCCC2)[nH]c(=O)c1C | 7.97 µM | 13.4 µM

Row | Structure (SMILES) | IC50 | IC90
43 | COc1cc(NC(=O)C/C(C)=N/NC(=O)c2ccccn2)c(OC)cc1Cl | 1.65 µM | 4.49 µM
44 | COC(=O)c1cc(=O)n(-c2ccc(F)cc2)c(=Nc2ccc(F)cc2)s1 | 0.36 µM | 1.18 µM
45 | O=C(NCCc1ccc(Cl)cc1)C1CCC(CNc2c(N3CCCCC3)c(=O)c2=O)CC1 (stereo not given) | 20.4 µM | > 25 µM
46 | CCOC(=O)CSc1ncnc2c1cnn2-c1ccc(C)cc1 | 6.95 µM | > 25 µM
47 | CC1CC(C)CN(C(=O)c2ccc(CNc3c(N4CCCC4)c(=O)c3=O)cc2)C1 (stereo not given) | 5.14 µM | > 25 µM
48 | CC(=NCc1ccc2c(c1)OCO2)C1=C(O)c2ccccc2C1=O | 0.95 µM | > 25 µM
49 | O=C1C(Br)=Cc2cccc3cccc1c23 | 0.16 µM | 0.79 µM
50 | CCc1c(C)nc(SCC(=O)Nc2ccc3c(c2)OCCO3)[nH]c1=O | 14.1 µM | > 25 µM
51 | Cc1ccc2ccc3ccc(C)nc3c2n1 | 0.18 µM | 0.48 µM
52 | CC1CCCN(C(=O)C2CCC(CNc3c(N4CCCCC4)c(=O)c3=O)CC2)C1 (stereo not given) | 11.5 µM | > 25 µM
53 | Cc1ccc(NC(=O)COC(=O)CCc2c[nH]c3ccccc23)cc1[N+](=O)[O-] | 1.16 µM | 4.23 µM
54 | CC(=O)c1ccc(NC(=O)c2ccc(CNc3c(N4CCOCC4)c(=O)c3=O)cc2)cc1 | 12.4 µM | > 25 µM
55 | CNc1nc(SCc2ccccc2Cl)nc2c1CCCC2 | 1.15 µM | 3.01 µM
56 | O=C(/C=C\c1cccs1)N1CCN(Cc2ccc3c(c2)OCO3)CC1 | 0.94 µM | > 25 µM
57 | CCc1ccc(/C=C2/C(=O)N(C)C(=S)N2CC(=O)OC)s1 | 1.12 µM | 4.63 µM
58 | CC(C)CCNC(=O)CSc1nc2ccccc2c(=O)[nH]1 | 1.19 µM | 2.35 µM
59 | Cc1cc(C)n2nc(N)c(N=Nc3ccccc3)c2n1 | 2.73 µM | 3.69 µM
60 | CCOC(=O)COn1c2c(c3c4no[n+]([O-])c4ccc31)CCCC2 | 1.96 µM | 3.17 µM
61 | O=C(/C=C/c1ccccc1)N1CCN(CCN2C(=O)c3cccc4cccc(c34)C2=O)CC1 | 2.16 µM | 4.97 µM
62 | Cc1ccc(NC(=O)C2C3/C=C\CCCCC32)cc1C (stereo not given) | 1.43 µM | > 25 µM
63 | O=C(CSc1nc2ccccc2c(=O)[nH]1)NC1CCCCC1 | 0.04 µM | 0.08 µM
